Laboratory results: ChEMBL document CHEMBL1127098, “Anticonvulsant activity of glycine-site NMDA antagonists. 1. 2-carboxyl prodrugs of 5,7-dichlorokynurenic acid” (Bioorg Med Chem Lett, 1993)

Legend:
Mus musculus [1] = assay: Tested for the effective dose required for anticonvulsant activity when given intraperitoneally; assay type: functional; settings: ip
Mus musculus [2] = assay: Tested for anticonvulsant activity by the antagonism of audiogenic seizures in DBA/2 mice and number of mice protected from tonic seizure/number of mice tested at 250 mg/kg dose after 30 mins was reported (0 out of 8); assay type: functional
Mus musculus [3] = assay: Tested for the effective dose required for anticonvulsant activity when given intraperitoneally after 15 minutes in DBA/2 mice; assay type: functional; settings: ip, 0.25 h
[4] = Half-life at pH 7.4; assay type: ADME; settings: buffer
Mus musculus [5] = assay: Tested for anticonvulsant activity by the antagonism of audiogenic seizures in DBA/2 mice and number of mice protected from tonic seizure/number of mice tested at 250 mg/kg dose after 120 mins was reported (1 out of 8); assay type: functional
Mus musculus [6] = assay: Tested for anticonvulsant activity by the antagonism of audiogenic seizures in DBA/2 mice and number of mice protected from tonic seizure/number of mice tested at 250 mg/kg dose after 30 mins was reported (8 out of 8); assay type: functional
Mus musculus [7] = assay: Tested for anticonvulsant activity by the antagonism of audiogenic seizures in DBA/2 mice and number of mice protected from tonic seizure/number of mice tested at 250 mg/kg dose after 60 mins was reported (5 out of 7); assay type: functional
Mus musculus [8] = assay: Tested for the effective dose required for anticonvulsant activity when given intraperitoneally after 30 minutes in DBA/2 mice; assay type: functional; settings: ip, 0.5 h
Mus musculus [9] = assay: Tested for anticonvulsant activity by the antagonism of audiogenic seizures in DBA/2 mice and number of mice protected from tonic seizure/number of mice tested at 250 mg/kg dose after 15 mins was reported (8 out of 8); assay type: functional
Mus musculus [10] = assay: Tested for anticonvulsant activity by the antagonism of audiogenic seizures in DBA/2 mice and number of mice protected from tonic seizure/number of mice tested at 250 mg/kg dose after 15 mins was reported (4 out of 8); assay type: functional
Mus musculus [11] = assay: Tested for anticonvulsant activity by the antagonism of audiogenic seizures in DBA/2 mice and number of mice protected from tonic seizure/number of mice tested at 250 mg/kg dose after 120 mins was reported (0 out of 6); assay type: functional
Mus musculus [12] = assay: Tested for anticonvulsant activity by the antagonism of audiogenic seizures in DBA/2 mice and number of mice protected from tonic seizure/number of mice tested at 250 mg/kg dose after 60 mins was reported (1 out of 6); assay type: functional
Mus musculus [13] = assay: Tested for anticonvulsant activity by the antagonism of audiogenic seizures in DBA/2 mice and number of mice protected from tonic seizure/number of mice tested at 250 mg/kg dose after 30 mins was reported (1 out of 6); assay type: functional
Mus musculus [14] = assay: Tested for anticonvulsant activity by the antagonism of audiogenic seizures in DBA/2 mice and number of mice protected from tonic seizure/number of mice tested at 250 mg/kg dose after 60 mins was reported (3 out of 8); assay type: functional
Mus musculus [15] = assay: Tested for anticonvulsant activity by the antagonism of audiogenic seizures in DBA/2 mice and number of mice protected from tonic seizure/number of mice tested at 250 mg/kg dose after 15 mins was reported (0 out of 8); assay type: functional
Mus musculus [16] = assay: Tested for anticonvulsant activity by the antagonism of audiogenic seizures in DBA/2 mice and number of mice protected from tonic seizure/number of mice tested at 250 mg/kg dose after 30 mins was reported (1 out of 8); assay type: functional
Mus musculus [17] = assay: Tested for anticonvulsant activity by the antagonism of audiogenic seizures in DBA/2 mice and number of mice protected from tonic seizure/number of mice tested at 250 mg/kg dose after 120 mins was reported (3 out of 9); assay type: functional
Mus musculus [18] = assay: Tested for anticonvulsant activity by the antagonism of audiogenic seizures in DBA/2 mice and number of mice protected from tonic seizure/number of mice tested at 250 mg/kg dose after 120 mins was reported (0 out of 8); assay type: functional
Mus musculus [19] = assay: Tested for anticonvulsant activity by the antagonism of audiogenic seizures in DBA/2 mice and number of mice protected from tonic seizure/number of mice tested at 250 mg/kg dose after 60 mins was reported (2 out of 8); assay type: functional
Mus musculus [20] = assay: Tested for anticonvulsant activity by the antagonism of audiogenic seizures in DBA/2 mice and number of mice protected from tonic seizure/number of mice tested at 250 mg/kg dose after 15 mins was reported (1 out of 8); assay type: functional
Mus musculus [21] = assay: Tested for anticonvulsant activity by the antagonism of audiogenic seizures in DBA/2 mice and number of mice protected from tonic seizure/number of mice tested at 250 mg/kg dose after 15 mins was reported (5 out of 7); assay type: functional
Mus musculus [22] = assay: Tested for anticonvulsant activity by the antagonism of audiogenic seizures in DBA/2 mice and number of mice protected from tonic seizure/number of mice tested at 250 mg/kg dose after 120 mins was reported (3 out of 7); assay type: functional
Mus musculus [23] = assay: Tested for anticonvulsant activity by the antagonism of audiogenic seizures in DBA/2 mice and number of mice protected from tonic seizure/number of mice tested at 250 mg/kg dose after 30 mins was reported (7 out of 8); assay type: functional
Mus musculus [24] = assay: Tested for anticonvulsant activity by the antagonism of audiogenic seizures in DBA/2 mice and number of mice protected from tonic seizure/number of mice tested at 250 mg/kg dose after 30 mins was reported (7 out of 7); assay type: functional
Mus musculus [25] = assay: Tested for anticonvulsant activity by the antagonism of audiogenic seizures in DBA/2 mice and number of mice protected from tonic seizure/number of mice tested at 250 mg/kg dose after 120 mins was reported (1 out of 7); assay type: functional
Mus musculus [26] = assay: Tested for anticonvulsant activity by the antagonism of audiogenic seizures in DBA/2 mice and number of mice protected from tonic seizure/number of mice tested at 250 mg/kg dose after 15 mins was reported (7 out of 7); assay type: functional
Mus musculus [27] = assay: Tested for anticonvulsant activity by the antagonism of audiogenic seizures in DBA/2 mice and number of mice protected from tonic seizure/number of mice tested at 250 mg/kg dose after 60 mins was reported (1 out of 7); assay type: functional
Mus musculus [28] = assay: Tested for anticonvulsant activity by the antagonism of audiogenic seizures in DBA/2 mice and number of mice protected from tonic seizure/number of mice tested at 250 mg/kg dose after 60 mins was reported (5 out of 8); assay type: functional
Mus musculus [29] = assay: Tested for anticonvulsant activity by the antagonism of audiogenic seizures in DBA/2 mice and number of mice protected from tonic seizure/number of mice tested at 250 mg/kg dose after 60 mins was reported (4 out of 8); assay type: functional
Mus musculus [30] = assay: Tested for anticonvulsant activity by the antagonism of audiogenic seizures in DBA/2 mice and number of mice protected from tonic seizure/number of mice tested at 250 mg/kg dose after 30 mins was reported (5 out of 8); assay type: functional
Mus musculus [31] = species on record: Mus musculus; assay: Tested for the anticonvulsant activity by the antagonism of the audiogenic seizures in DBA/2 mice after 30 minutes; assay type: functional; settings: 0.5 h
Mus musculus [32] = assay: Tested for anticonvulsant activity by the antagonism of audiogenic seizures in DBA/2 mice and number of mice protected from tonic seizure/number of mice tested at 250 mg/kg dose after 120 mins was reported (2 out of 8); assay type: functional
Mus musculus [33] = assay: Tested for anticonvulsant activity by the antagonism of audiogenic seizures in DBA/2 mice and number of mice protected from tonic seizure/number of mice tested at 250 mg/kg dose after 60 mins was reported (7 out of 8); assay type: functional

## O=C(O)c1cc(O)c2c(Cl)cc(Cl)cc2n1
Mus musculus [1]
  ED50: 250 mg/kg
Mus musculus [2]
  No. of mouse protected: 0

## CCN(CC)CCOC(=O)c1cc(O)c2c(Cl)cc(Cl)cc2n1
Mus musculus [3]
  ED50: 98 mg/kg
[4]
  half-life: 22 min
Mus musculus [5]
  No. of mouse protected: 1
Mus musculus [6]
  No. of mouse protected: 8
Mus musculus [7]
  No. of mouse protected: 5
Mus musculus [8]
  ED50: 171 mg/kg
Mus musculus [9]
  No. of mouse protected: 8

## C[N+](C)(C)CCNC(=O)c1cc(O)c2c(Cl)cc(Cl)cc2n1.[I-]
Mus musculus [10]
  No. of mouse protected: 4
Mus musculus [11]
  No. of mouse protected: 0
Mus musculus [12]
  No. of mouse protected: 1
Mus musculus [13]
  No. of mouse protected: 1

## O=C(OCCN1CCOCC1)c1cc(O)c2c(Cl)cc(Cl)cc2n1
Mus musculus [14]
  No. of mouse protected: 3
Mus musculus [15]
  No. of mouse protected: 0
Mus musculus [16]
  No. of mouse protected: 1
Mus musculus [17]
  No. of mouse protected: 3

## O=C(NCCN1CCOCC1)c1cc(O)c2c(Cl)cc(Cl)cc2n1
Mus musculus [18]
  No. of mouse protected: 0
Mus musculus [19]
  No. of mouse protected: 2
Mus musculus [20]
  No. of mouse protected: 1
Mus musculus [2]
  No. of mouse protected: 0

## CN(C)CCCOC(=O)c1cc(O)c2c(Cl)cc(Cl)cc2n1
Mus musculus [19]
  No. of mouse protected: 2
Mus musculus [21]
  No. of mouse protected: 5
Mus musculus [22]
  No. of mouse protected: 3
Mus musculus [23]
  No. of mouse protected: 7

## CC(C)N(CCOC(=O)c1cc(O)c2c(Cl)cc(Cl)cc2n1)C(C)C
Mus musculus [24]
  No. of mouse protected: 7
Mus musculus [25]
  No. of mouse protected: 1
Mus musculus [3]
  ED50: 152 mg/kg
Mus musculus [26]
  No. of mouse protected: 7
Mus musculus [27]
  No. of mouse protected: 1

## O=C(OCCN1CCCC1)c1cc(O)c2c(Cl)cc(Cl)cc2n1
Mus musculus [28]
  No. of mouse protected: 5
Mus musculus [3]
  ED50: 128 mg/kg
Mus musculus [18]
  No. of mouse protected: 0
Mus musculus [23]
  No. of mouse protected: 7
Mus musculus [9]
  No. of mouse protected: 8

## CN(C)CCNC(=O)c1cc(O)c2c(Cl)cc(Cl)cc2n1
Mus musculus [5]
  No. of mouse protected: 1
Mus musculus [29]
  No. of mouse protected: 4
Mus musculus [30]
  No. of mouse protected: 5
Mus musculus [20]
  No. of mouse protected: 1
Mus musculus [8]
  ED50: 303 mg/kg

## CC(CN(C)C)OC(=O)c1cc(O)c2c(Cl)cc(Cl)cc2n1 (stereo unspecified)
Mus musculus [3]
  ED50: 62 mg/kg
Mus musculus [31]
  ED50: 138 mg/kg
Mus musculus [6]
  No. of mouse protected: 8
Mus musculus [32]
  No. of mouse protected: 2
Mus musculus [9]
  No. of mouse protected: 8
Mus musculus [33]
  No. of mouse protected: 7
